Test results reported in ChEMBL document CHEMBL1142122, “Extending the record of meroditerpenes from Cacospongia marine sponges” (2007).
≈ marks a conversion by molar mass, not a printed value.

Tests used:
Assay type in all cases: functional
Bacillus subtilis = assay: Antimicrobial activity against Bacillus subtilis
Escherichia coli = assay: Antimicrobial activity against Escherichia coli
[1] = system: Staphylococcus epidermidis; assay: Antimicrobial activity against Staphylococcus epidermidis

Compound | MIC (Bacillus subtilis) | MIC (Escherichia coli) | MIC [1]
CC1=C(CC/C(C)=C/CC/C(C)=C/Cc2cc(C(=O)O)ccc2O)C(C)(C)CCC1 [CACOSPONGIN D] | > 400 µg/mL | > 400 µg/mL | 20 µg/mL (≈ 48.7 µM)
C=C(C)CCC[C@@]1(C)CCC[C@@]2(C)[C@H](Cc3cc(C(=O)O)ccc3O)C(=C)CC[C@H]12 | > 400 µg/mL | > 400 µg/mL | 2.5 µg/mL (≈ 6.09 µM)
CC(C)=CCC[C@@]1(C)CCC[C@]2(C)[C@@H](Cc3cc(C(=O)O)ccc3O)C(C)=CC[C@@H]12 [JASPIC ACID] | > 400 µg/mL | > 400 µg/mL | 2.5 µg/mL (≈ 6.09 µM)
CC1=C(CC/C(C)=C/CC/C(C)=C/Cc2cc(O)ccc2O)C(C)(C)CCC1 [JASPAQUINOL] | > 400 µg/mL | > 400 µg/mL | 5 µg/mL (≈ 13.1 µM)
